For assay [1], the target named is Endoplasmic reticulum aminopeptidase 1 (Homo sapiens, UniProt Q9NZ08). The assay can be described thus: inhibition of human ERAP1 enzyme activity – biochemical, cherry-pick, set 2, plate reader, dose response (AID 743314).
The nature of assay [2]: Dd2 malaria parasite growth inhibition potency – SYBR Green, dry powder samples, dose response (AID 1159566).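 Also: potency for growth inhibition with lower SYBR green DNA signal.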 It counts as functional, cell-based.
The nature of assay [3]: toxicity toward immortalized ovarian surface epithelium – cell-based, plate reader, dry powder samples, cytotoxicity control for PAX8 inhibitor project, dose response (AID 743045). It counts as functional.
Assay [4] is described as follows: A549 cell cytotoxicity, dose response, cytotoxicity control, plate reader, cherry-pick, antagonist series (AID 743412). It counts as functional, cell-based.
Assay [5] in a line: growth inhibition of PfATP4-mutant resistant parasites – NITD609-resistant line, SYBR Green, dry powder, dose response (AID 1159571).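 Also: parasites synchronized at ring stage by sorbitol before testing.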 It counts as functional, cell-based.
In the next assay the target is Paired box protein Pax-8 (Homo sapiens, UniProt Q06710). Briefly: PAX8 transcriptional activity inhibition in RMG-I – RMG-I cells, luciferase, cherry-pick, dose response (AID 687027).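 Also: luciferase reporter driven by Pax8 target thyroperoxidase promoter measured by SteadyGlo luminescence.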 It counts as functional, cell-based.
Paired box protein Pax-8, sequence (Q06710 whole entry): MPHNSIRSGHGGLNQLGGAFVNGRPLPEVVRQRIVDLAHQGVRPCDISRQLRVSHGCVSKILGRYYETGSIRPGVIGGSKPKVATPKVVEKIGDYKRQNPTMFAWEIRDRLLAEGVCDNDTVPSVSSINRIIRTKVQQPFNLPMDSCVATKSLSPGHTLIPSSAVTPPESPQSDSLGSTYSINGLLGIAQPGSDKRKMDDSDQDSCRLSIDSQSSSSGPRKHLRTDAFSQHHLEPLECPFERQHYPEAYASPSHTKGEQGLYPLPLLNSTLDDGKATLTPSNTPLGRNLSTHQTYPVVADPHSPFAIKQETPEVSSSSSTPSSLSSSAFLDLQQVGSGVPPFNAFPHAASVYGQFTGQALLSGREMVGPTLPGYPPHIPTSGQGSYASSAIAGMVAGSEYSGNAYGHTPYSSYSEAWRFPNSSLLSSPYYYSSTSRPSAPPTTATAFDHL
Assay [6] can be described thus: toxicity toward HepG2 liver cells – cell-based, plate reader, cherry-pick, antagonist series, cytotoxicity control, dose response (AID 743416). It counts as functional.
Assay [7] in a line: P. falciparum Dd2 growth inhibitors, dose response, SYBR Green, cherry-picked samples (AID 1159567). It counts as functional, cell-based.
The nature of assay [8]: toxicity to human HepG2 hepatoma cells – cell-based, plate reader, dry powder samples, cytotoxicity control, dose response (AID 1159569).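 Also: inhibitor potency with signal falling toward the positive control level.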 It counts as functional.
Assay [9] is described as follows: OVCAR-3 cell viability loss – plate reader, dry powder samples, PAX8 inhibitor project, dose response (AID 743044). In kind it is functional, cell-based.
Assay [10] can be described thus: blockade of melanocortin 4 receptor signaling – cell-based, plate reader, cherry pick, counter-screen for LGR2 antagonist project, dose response (AID 743444).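 Also: transfected HEK 293 cells stimulated with alpha-MSH peptide; potency of inhibitors of the alpha-MSH evoked signal.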 It counts as functional.
A short description of assay [11]: blockers of bursicon-stimulated LGR2 cAMP reporter – cell-based, HEK293, CRE-luciferase reporter, cherry pick, set 2, dose response (AID 743343).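 Also: transfected cells were stimulated with diluted bursicon conditioned medium after compound addition.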 It counts as functional. In general terms: Reporter assays use an easily measured gene product as a stand-in for the process of interest.
Assay [12] in a line: OVCAR8 cell viability loss – plate reader, dry powder samples, PAX8 project, dose response (AID 743197). In kind it is functional, cell-based. As to conditions: OVCAR-8.
The nature of assay [13]: viability loss in HEK293 cells – cell-based, plate reader, cherry-picked samples, cytotoxicity control, dose response (AID 743446). In kind it is functional.
Assay [14] can be described thus: growth inhibition of yeast DHODH-expressing 3D7 parasites – SYBR Green, dry powder samples, dose response (AID 1159570).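 Also: parasite growth measured after 72 hours of compound exposure.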 In kind it is functional, cell-based.
Assay [15] can be described thus: IGROV1 cell killing – plate reader, dry powder samples, PAX8 inhibitor project, dose response (AID 743043). It counts as functional, cell-based. The note with it: IGROV-1.
In another assay the target is Fatty acid synthase (Homo sapiens, UniProt P49327). Briefly: inhibition of human FAS-TE enzyme activity – biochemical, endpoint fluorescence intensity, powder samples, SAR follow-up (AID 652164). It counts as functional.
The target of assay [16] is Kappa-type opioid receptor (Homo sapiens, UniProt P41145). The assay can be described thus: kappa opioid receptor antagonism potency – cell-based, fluorescence, dose response, late-stage follow-up (AID 652032). In kind it is functional.
Kappa-type opioid receptor, sequence (P41145 whole entry): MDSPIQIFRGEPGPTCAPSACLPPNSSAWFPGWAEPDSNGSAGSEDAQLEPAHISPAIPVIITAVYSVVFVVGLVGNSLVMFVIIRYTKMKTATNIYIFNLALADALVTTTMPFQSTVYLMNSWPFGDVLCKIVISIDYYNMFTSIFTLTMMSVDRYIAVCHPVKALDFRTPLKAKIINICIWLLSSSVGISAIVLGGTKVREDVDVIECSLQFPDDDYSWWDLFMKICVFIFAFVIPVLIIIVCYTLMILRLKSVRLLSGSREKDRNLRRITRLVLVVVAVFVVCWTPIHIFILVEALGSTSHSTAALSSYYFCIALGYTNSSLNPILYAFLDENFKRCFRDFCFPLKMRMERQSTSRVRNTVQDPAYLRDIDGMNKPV
A short description of assay [17]: cytotoxicity in MITF-independent A375 cells – cell-based, CellTiter-Glo luminescence, dry powder, set 4, counter-screen for MITF inhibitor project, dose response (AID 624364).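 Also: A375 melanoma cells are MITF independent so this is a counter screen.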 It counts as functional. As to conditions: A-375.
A short description of assay [18]: viability loss in MITF-independent A375 cells – cell-based, CellTiter-Glo luminescence, dry powder, set 2, counter-screen for MITF inhibitor project, dose response (AID 624489).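 Also: actives are compounds lowering A375 viability meaning general cytotoxicity.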 In kind it is functional. The note with it: A-375.
A further assay addresses fMet-Leu-Phe receptor (Homo sapiens, UniProt P21462). The assay can be described thus: formyl peptide receptor binders – dose response (AID 519). It counts as functional.
A short description of assay [19]: inhibition of ADAM10 peptide cleavage – biochemical, FRET peptide substrate, recombinant human ADAM10, selectivity assay for ADAM17 exosite inhibitor project, dose response (AID 743259).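 Also: ADAM10 enzyme cleaving a FRET peptide substrate.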
In assay [20] the target is Disintegrin and metalloproteinase domain-containing protein 17 (Homo sapiens, UniProt P78536). Briefly: exosite inhibitors of ADAM17, dose response, biochemical (AID 743260).
Disintegrin and metalloproteinase domain-containing protein 17, sequence (P78536 whole entry, the tested form may be a part): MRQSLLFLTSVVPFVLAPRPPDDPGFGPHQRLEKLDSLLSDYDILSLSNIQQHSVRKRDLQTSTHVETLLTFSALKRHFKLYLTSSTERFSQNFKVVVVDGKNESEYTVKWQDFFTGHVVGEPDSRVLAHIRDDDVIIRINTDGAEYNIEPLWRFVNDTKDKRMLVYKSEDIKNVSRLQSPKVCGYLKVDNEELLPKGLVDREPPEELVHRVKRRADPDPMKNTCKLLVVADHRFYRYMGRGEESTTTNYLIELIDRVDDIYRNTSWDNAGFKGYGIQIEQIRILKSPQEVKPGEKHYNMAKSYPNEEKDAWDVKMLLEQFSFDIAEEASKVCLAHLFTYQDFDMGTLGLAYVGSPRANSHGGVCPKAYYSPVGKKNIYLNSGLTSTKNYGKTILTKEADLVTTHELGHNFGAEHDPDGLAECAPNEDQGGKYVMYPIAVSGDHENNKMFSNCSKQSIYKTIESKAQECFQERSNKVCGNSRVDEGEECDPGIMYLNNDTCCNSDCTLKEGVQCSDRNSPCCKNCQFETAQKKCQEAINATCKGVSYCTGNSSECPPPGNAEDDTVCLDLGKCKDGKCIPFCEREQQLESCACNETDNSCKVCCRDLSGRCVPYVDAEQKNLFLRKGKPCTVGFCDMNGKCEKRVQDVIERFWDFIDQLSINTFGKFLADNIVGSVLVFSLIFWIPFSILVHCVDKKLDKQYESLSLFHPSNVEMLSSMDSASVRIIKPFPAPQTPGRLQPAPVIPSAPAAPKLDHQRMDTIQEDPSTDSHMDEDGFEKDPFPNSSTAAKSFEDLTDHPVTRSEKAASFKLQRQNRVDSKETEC
The target in assay [21] is Induced myeloid leukemia cell differentiation protein Mcl-1 (Homo sapiens, UniProt Q07820). In kind it is functional.
Induced myeloid leukemia cell differentiation protein Mcl-1, sequence (Q07820 whole entry): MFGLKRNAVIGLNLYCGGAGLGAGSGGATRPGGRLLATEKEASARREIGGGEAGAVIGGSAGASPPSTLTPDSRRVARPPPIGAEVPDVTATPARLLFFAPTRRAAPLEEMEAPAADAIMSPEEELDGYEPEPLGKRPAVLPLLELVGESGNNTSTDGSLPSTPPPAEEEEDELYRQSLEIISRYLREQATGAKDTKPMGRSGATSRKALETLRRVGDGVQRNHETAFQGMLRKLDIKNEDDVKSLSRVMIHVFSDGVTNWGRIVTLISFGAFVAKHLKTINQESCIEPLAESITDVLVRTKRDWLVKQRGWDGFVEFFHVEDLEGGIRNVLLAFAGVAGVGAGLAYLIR
Assay [22] in a line: A2780 cell killing – plate reader, dry powder samples, cytotoxicity control, dose response (AID 743046). It counts as functional, cell-based.
The test system of a further assay is HeLa. The assay can be described thus: viability loss in HeLa cells – cell-based, ATP luminescence, cherry-pick samples, cytotoxicity control, dose response (AID 687004). As to conditions: Homo sapiens. In kind it is functional.
In assay [23] the target is T1, Calpain-2 catalytic subunit (Sus scrofa, UniProt P43367).
T1 sequence (P43367 whole entry): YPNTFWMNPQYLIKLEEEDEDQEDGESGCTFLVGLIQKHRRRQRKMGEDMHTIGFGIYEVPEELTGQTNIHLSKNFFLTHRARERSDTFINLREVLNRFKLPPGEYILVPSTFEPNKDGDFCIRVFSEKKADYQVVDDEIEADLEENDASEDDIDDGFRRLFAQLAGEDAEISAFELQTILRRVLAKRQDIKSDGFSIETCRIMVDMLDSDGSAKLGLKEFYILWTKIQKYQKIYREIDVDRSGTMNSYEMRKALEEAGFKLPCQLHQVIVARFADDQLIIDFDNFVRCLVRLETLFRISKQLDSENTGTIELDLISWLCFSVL
The assay can be described thus: m-calpain protease blockers, concentration series – biochemical, fluorogenic peptide substrate, dose response (AID 1420). It counts as functional.

For assay [24], the target named is T2, Methionyl-tRNA synthetase, putative (Trypanosoma brucei brucei, UniProt Q38C91).
T2 sequence (Q38C91 whole entry): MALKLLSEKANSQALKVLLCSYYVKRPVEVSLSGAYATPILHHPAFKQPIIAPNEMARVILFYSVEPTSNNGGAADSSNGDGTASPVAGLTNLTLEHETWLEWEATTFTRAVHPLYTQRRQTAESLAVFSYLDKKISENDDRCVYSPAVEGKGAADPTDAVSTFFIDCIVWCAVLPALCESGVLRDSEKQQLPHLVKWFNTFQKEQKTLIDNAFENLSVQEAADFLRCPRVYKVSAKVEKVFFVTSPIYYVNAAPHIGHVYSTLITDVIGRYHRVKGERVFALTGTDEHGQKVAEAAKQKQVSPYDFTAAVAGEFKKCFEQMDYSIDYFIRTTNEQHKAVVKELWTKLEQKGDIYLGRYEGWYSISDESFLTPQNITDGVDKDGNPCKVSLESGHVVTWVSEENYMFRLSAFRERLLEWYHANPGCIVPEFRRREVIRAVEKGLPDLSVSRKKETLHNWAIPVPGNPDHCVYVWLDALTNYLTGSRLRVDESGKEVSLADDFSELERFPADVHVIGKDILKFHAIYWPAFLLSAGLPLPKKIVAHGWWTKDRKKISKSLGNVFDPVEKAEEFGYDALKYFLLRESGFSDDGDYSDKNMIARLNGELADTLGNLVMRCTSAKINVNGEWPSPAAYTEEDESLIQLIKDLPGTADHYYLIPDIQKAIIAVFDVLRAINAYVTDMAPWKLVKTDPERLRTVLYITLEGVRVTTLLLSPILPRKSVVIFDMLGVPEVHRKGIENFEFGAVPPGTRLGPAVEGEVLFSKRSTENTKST
In kind it is functional, Trypanosoma brucei brucei strain 927/4 GUTat10.1.

The nature of assay [25]: Late stage counterscreen for inhibitors of Trypanosoma brucei methionyl tRNA synthetase (MetRS): Luminescence-based cell-based high throughput dose response assay to identify compounds that are cytotoxic to Jurkat human T lymphocyte cells. It counts as functional. In general terms: The purpose of a counterscreen is to sort out artefacts and off-target activity.
Assay [26] concerns the target T2, Methionyl-tRNA synthetase, putative. It counts as functional, Trypanosoma brucei brucei strain 927/4 GUTat10.1. The source holds these as a separate data set.
The nature of assay [27]: Counterscreen for inhibitors of Trypanosoma brucei methionyl tRNA synthetase (MetRS): Luminescence-based cell-based high throughput dose response assay to identify compounds that are cytotoxic to Jurkat human T lymphocyte cells. It counts as functional.
Assay [28] can be described thus: CTGF mRNA reduction in DLD1 cells – cell-based, DLD1 colon cancer, RT-qPCR, cherry-pick, dose response (AID 1053122). The note with it: Cancer cell lines. In kind it is functional. Background: In qPCR the cycle at which signal appears reflects the starting amount.
Assay [29] is described as follows: HeLa cell viability loss – plate reader, dry powder, cytotoxicity control, dose response (AID 651946). It counts as functional, cell-based.
Assay [30] is described as follows: viability loss in CEM21 cells – cell-based, plate reader, dry powder, cytotoxicity control, dose response (AID 687026). It counts as functional.
Another assay deals with NS3 (Hepatitis C virus, UniProt A3EZJ3). The assay can be described thus: NS3h DNA-binding inhibition IC50 – biochemical, fluorescence polarization, ChemBridge library, dose response (AID 743264).
NS3, sequence (A3EZJ3 whole entry): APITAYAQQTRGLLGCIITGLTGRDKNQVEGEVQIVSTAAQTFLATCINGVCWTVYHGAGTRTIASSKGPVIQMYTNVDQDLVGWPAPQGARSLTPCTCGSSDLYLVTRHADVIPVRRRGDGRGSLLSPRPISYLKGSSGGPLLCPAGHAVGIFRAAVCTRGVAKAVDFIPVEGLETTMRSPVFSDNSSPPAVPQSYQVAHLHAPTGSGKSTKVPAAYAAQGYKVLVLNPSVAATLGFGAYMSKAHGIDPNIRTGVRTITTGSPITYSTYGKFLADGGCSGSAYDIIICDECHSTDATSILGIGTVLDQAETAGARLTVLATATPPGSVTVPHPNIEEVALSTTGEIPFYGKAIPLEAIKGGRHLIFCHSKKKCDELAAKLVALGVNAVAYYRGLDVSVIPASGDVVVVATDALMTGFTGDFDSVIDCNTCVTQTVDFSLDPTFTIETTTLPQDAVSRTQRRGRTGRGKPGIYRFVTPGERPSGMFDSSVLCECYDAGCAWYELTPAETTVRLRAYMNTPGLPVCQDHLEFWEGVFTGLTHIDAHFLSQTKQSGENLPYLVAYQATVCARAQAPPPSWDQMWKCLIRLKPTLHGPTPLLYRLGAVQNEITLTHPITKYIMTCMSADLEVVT

The values that follow come from ChEMBL document CHEMBL1201862, “PubChem BioAssay data set” (2004).

Calls of active or inactive are those of the source.

Endoplasmic reticulum aminopeptidase 1, sequence (Q9NZ08 whole entry): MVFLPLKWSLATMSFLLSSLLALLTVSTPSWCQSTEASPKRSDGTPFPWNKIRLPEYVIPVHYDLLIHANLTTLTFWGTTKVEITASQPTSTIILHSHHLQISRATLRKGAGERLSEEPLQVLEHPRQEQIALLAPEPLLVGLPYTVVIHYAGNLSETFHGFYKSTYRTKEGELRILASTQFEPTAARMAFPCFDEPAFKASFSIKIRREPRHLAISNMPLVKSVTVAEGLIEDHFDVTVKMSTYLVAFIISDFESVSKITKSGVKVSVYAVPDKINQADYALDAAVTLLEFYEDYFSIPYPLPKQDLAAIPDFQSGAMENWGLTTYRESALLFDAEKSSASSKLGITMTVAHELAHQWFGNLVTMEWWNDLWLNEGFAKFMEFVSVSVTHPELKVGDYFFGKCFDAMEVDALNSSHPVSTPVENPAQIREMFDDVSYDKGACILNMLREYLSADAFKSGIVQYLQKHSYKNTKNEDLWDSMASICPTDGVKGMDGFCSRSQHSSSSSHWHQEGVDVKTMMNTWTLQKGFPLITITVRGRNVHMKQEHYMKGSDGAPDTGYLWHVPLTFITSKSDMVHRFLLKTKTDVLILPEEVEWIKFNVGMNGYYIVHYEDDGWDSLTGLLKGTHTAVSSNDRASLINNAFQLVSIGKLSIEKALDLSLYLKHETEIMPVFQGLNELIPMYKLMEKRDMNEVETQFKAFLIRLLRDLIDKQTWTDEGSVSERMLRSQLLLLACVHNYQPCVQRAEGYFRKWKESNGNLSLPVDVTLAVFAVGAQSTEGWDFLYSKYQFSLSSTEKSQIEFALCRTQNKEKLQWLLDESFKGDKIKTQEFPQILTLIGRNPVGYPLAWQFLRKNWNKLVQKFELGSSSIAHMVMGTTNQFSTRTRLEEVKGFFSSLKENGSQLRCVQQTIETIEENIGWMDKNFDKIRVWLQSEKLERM
fMet-Leu-Phe receptor, sequence (P21462 whole entry): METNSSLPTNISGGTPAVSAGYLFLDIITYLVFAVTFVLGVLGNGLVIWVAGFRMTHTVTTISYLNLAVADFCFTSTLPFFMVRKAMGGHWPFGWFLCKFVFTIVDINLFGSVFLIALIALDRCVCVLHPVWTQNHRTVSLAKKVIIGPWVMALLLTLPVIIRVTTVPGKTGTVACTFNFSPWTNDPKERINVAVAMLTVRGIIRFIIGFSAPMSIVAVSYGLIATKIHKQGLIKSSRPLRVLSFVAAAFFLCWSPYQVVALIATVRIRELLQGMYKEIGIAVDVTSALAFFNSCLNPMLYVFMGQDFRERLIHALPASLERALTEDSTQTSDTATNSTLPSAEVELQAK

For the compound `O=c1ccc2cc(O[C@@H]3O[C@@H](CO)[C@H](O)[C@@H](O)[C@@H]3O)c(O)cc2o1`, the AC50 in [1] was 2.37 µM (active).

As for `O=C(C1CC1)N1C[C@@H]2N[C@H](C1)[C@@H]2c1ccc(-c2cccc(F)c2)cc1`, the AC50 in [2] is 0.778 µM (active); in assay [3] it was 21.1 µM (active); in [4], 3.9 µM (active); in [5] it was 1.04 µM (active); at Paired box protein Pax-8, 6.38 µM (active); in [6], 19.6 µM (active). Further, the AC50 in [7] was 2.2 µM (active); in [8], 23.2 µM (active); in assay [9], 27 µM (active); in [10], 6.56 µM (active); in [11] it was 12.5 µM (active); in [12], 21.2 µM (active). Further, the AC50 in assay [13] was 28.1 µM (active); in [14], 0.9 µM (active); in assay [15] it was 26.7 µM (active).

Turning to `CC(=O)Nc1nc(-c2ccc(S(=O)(=O)N3CCOCC3)cc2)cs1`, the IC50 at Fatty acid synthase was 11.4 µM (active).

In the case of `COC(=O)c1cc(Br)cnc1N1CCCC(NC2CCCCC2)C1` (centres undefined), in assay [16], the IC50 is 11.7 µM (inactive).

On to `C=CCNC1=C(N2CCOCC2)C(=O)c2ccccc2C1=O`, for which the AC50 in assay [17] is 34.1 µM (active); in assay [18], 9.04 µM (active).

As to `CCCc1nc2ccccc2c2nc(N)nn12`, the Ki at fMet-Leu-Phe receptor was > 66.7 µM (inactive).

Take `CN(C)c1ccc(NC(=O)c2ccc(COc3cccc(Cl)c3)o2)cc1`: the IC50 in assay [19] was 8.25 µM (active); in assay [20] it was > 69.5 µM (inactive); in assay [21] it was 23.4 µM (active).

On to `COc1ccc(S(=O)(=O)Nc2ccc3c(c2)C(=O)N([C@H](C)CO)C[C@@H](C)[C@@H](CN(C)Cc2ccc(C(F)(F)F)cc2)OCCCC[C@@H](C)O3)cc1`, for which the half-maximal activity concentration (AC50) was 7.09 µM (active) on Paired box protein Pax-8; 27.9 µM (active) in assay [9]; 30.6 µM (active) in [12]; 51.2 µM (active) in assay [22]; 65.2 µM (active) in assay [15].

Turning to `CC(C)c1ccccc1N=C(S)NN(Cc1ccccc1)c1ccccc1`, the AC50 in the assay with HeLa was > 52 µM (inactive). In addition, in assay [23], the IC50 is < 0.4 µM (not active).

`Cc1ccc(NC(=O)CN(C)C(=O)CCSc2ccc(F)cc2)cc1`: the IC50 in assay [24] is 3.09 µM (active); in [25] it was > 83.3 µM (inactive); in assay [26], 4.57 µM (active); in assay [27], 83.3 µM (inactive).

Take `C[C@@H]1C/C=C/C[C@@H](c2cccc(Cl)c2)NC(=O)[C@H](Cc2ccccc2)N(C)C(=O)c2ccccc2O1.C[C@@H]1C/C=C\C[C@@H](c2cccc(Cl)c2)NC(=O)[C@H](Cc2ccccc2)N(C)C(=O)c2ccccc2O1`: the AC50 in [28] was 0.492 µM (active).

As for `[O-][S+](Cc1cn(-c2ccccc2)nn1)c1nnc(-c2ccc(Cl)cc2)o1` (centres undefined), in assay [29], the concentration at half-maximal activity (AC50) was 15.6 µM (active).

`Cc1ccc(C)n1-c1ccc(C(=O)O)c(O)c1`: in assay [30], the AC50 is > 70 µM (inactive). Besides, the IC50 on NS3 is 1.85 µM (inactive).

As usually defined, the AC50 is the midpoint of the concentration-response curve, whichever way the signal moves. What is called IC50 is the concentration needed to halve the response being measured. The Ki is the dissociation constant of the complex between target and ligand, obtained from inhibition or displacement.
